Experimental data from US8772312B2, “Heterocyclic compounds as CRTH2 receptor antagonists” (CSPC Zhongqi Pharmaceutical Technology (Shijiazhuang) Co., …, priority 2007, dated 2014).

How the values were obtained:
CRTH2 [1] = biological target: T1, CRTH2 (Homo sapiens, UniProt Q9Y5Y4); conditions: radioligand [3H] Prostaglandin D2; historical value of the MDS assay; cited from earlier work
T1 construct: host or cells: CHO-K1
T1 sequence (Q9Y5Y4 1-395): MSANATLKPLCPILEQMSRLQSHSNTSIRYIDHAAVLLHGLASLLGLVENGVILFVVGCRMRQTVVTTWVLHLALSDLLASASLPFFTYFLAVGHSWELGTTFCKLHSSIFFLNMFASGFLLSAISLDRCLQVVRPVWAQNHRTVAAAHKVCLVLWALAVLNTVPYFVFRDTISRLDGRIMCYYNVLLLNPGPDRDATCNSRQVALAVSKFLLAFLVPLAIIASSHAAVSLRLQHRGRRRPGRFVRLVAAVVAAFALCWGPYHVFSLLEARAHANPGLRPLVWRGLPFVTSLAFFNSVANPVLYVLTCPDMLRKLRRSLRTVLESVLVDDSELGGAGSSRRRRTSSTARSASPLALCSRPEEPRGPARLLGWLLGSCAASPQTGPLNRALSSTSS

CRTH2 [2] = biological target: T1, CRTH2; assay: MDS Prostanoid CRTH2 Binding Assay (Catalog #268030), radioligand binding; conditions: 20 nM of tested compound; ligand 1 nM [3H]PGD2; human recombinant CHO-K1 cells; 2 hours @ 25° C.
Method: The CRTH2 binding affinity of compounds of Formula I were assayed by MDS Pharma Service using the following reagents and conditions:
• MDS Prostanoid CRTH2 Binding Assay (Catalog #268030): • Source: Human recombinant CHO-K1 cells • Ligand: 1 nM [^3H]

Q: Which Kd (CRTH2 [1]) does the source give for `CCCCC[C@H](O)/C=C/[C@H]1C(=O)C[C@H](O)[C@@H]1C/C=C\CCCC(=O)O` [PGD2, Prostaglandin D2] here?
A: 4.1 nM

Q: Which “% inhibition of PGD2 binding” value (CRTH2 [2]) does the source give for `CN(C1CCc2c(CC(=O)O)c3ccc(Cl)nc3n2C1)S(=O)(=O)c1ccc(F)cc1` (single isomer, unassigned) [Example 2B] here?
A: 0%

Q: Which “% inhibition of PGD2 binding” value (CRTH2 [2]) does the source give for `CN(C1CCc2c(CC(=O)O)c3ccc(Cl)nc3n2C1)S(=O)(=O)c1ccc(F)cc1` (single isomer, unassigned) [Example 2A] here?
A: 97%

Q: With `CN(C1CCc2c(CC(=O)O)c3cccnc3n2C1)S(=O)(=O)c1ccc(F)cc1` (single isomer, unassigned) [Example 4A] as the molecule, how does the “% inhibition of PGD2 binding” value (CRTH2 [2]) read?
A: 91%

Q: With `CN(C1CCc2c(CC(=O)O)c3cccnc3n2C1)S(=O)(=O)c1ccc(F)cc1` (single isomer, unassigned) [Example 4B] as the molecule, how does the “% inhibition of PGD2 binding” value (CRTH2 [2]) read?
A: 0%
